Test results reported in patent US20260306460A1, “COMPOSITION FOR REMOVING AND INHIBITING SENESCENT CELLS, AND USES THEREOF” (LIFECEUTIX CO., LTD., priority 2023, published 2026).

Legend:
[1] = test system: HMGN1 secreted from senescent human cells; assay: HMGN1 secretion (ELISA) from doxorubicin-induced senescent human cells, Example 11; assay type: cell-based; conditions: senescent untreated = 100%; 30 μM; 90 μM for LX-305, 1302, 1603, 2005, 2702, 2901, 3106; 270 μM for LX-1103, 2007
naturally aged mice = assay: Anti-aging evaluation in naturally aged mice, Example 31, Table 55; assay type: in vivo, mouse; conditions: for Femur Ctsk mRNA / Kidney Agtr1a mRNA / Liver IL6 mRNA / Liver MMP3 mRNA / Liver p16 mRNA / Open Field Test Time in Center: untreated = 100%; for Heart Sur2a mRNA / Joint Col2a1 mRNA / Skin Col1a1 mRNA / Skin SDF1 mRNA: untreated = 1.0; for Muscle Mass: untreated 0.64 g; for Fat Mass: untreated 0.82 g; for Cataract incidence: untreated 83%;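 on all read-outs here: Vehicle-dosed control mice received solution alone at matching volume, values compare test-compound-treated aged mice against that control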
senescent A549 cells [2] = assay: Viability of senescent A549 cancer cells (CellTiter-Glo), Example 12; assay type: cell-based, human; conditions: 0 μM = 100
Method: (§1) Cells were treated with doxorubicin or control (DMSO) and cultured.
Cancer cells in which aging was induced by treatment with doxorubicin were treated with the test compound at designated concentrations and measured using the CellTiter-Glo Luminescent Cell Viability Assay (Promega).

senescent human cells = assay: Viability of doxorubicin-induced senescent human cells (CellTiter-Glo), Example 11; assay type: cell-based; conditions: 0 μM = 100
Method: Cells in which senescence was induced by treatment with doxorubicin were treated with the test compound at designated concentrations and measured using the CellTiter-Glo Luminescent Cell Viability Assay (Promega).
After 3 days, cell viability was measured using CellTiter-Glo Luminescent Cell Viability Assay (Promega) or light microscopy.

[3] = test system: bleomycin-induced pulmonary fibrosis mice; assay: Bleomycin-induced pulmonary fibrosis mice, Example 31, Table 56; assay type: in vivo, mouse; conditions: untreated = 100%
Procedure, shortened: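 After treatment with test compound or vehicle alone, lungs of bleomycin-induced pulmonary fibrosis mice were harvested. Total RNA extracted and gene expression quantified by qRT-PCR.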

[4] = test system: carbon tetrachloride-induced liver fibrosis mice; assay: Carbon tetrachloride-induced liver fibrosis mice, Example 31, Table 57; assay type: in vivo, mouse; conditions: CCl4-induced liver fibrosis mice, untreated = 100%
Procedure, shortened: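 Mice with induced hepatic fibrosis received either the test compound or, as controls, an equal volume of vehicle solution alone. Once dosing ended, liver tissue was harvested and total RNA was isolated. cDNA was synthesized from this RNA, and quantitative RT-PCR was run on it to measure hepatic mRNA levels of the fibrosis- and senescence-related genes.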

[5] = test system: HMGN1 secreted from senescent A549 cells; assay: HMGN1 secretion (ELISA) from senescent A549 cancer cells, Example 12; assay type: cell-based, human; conditions: senescent untreated = 100%; 30 μM; 90 μM for LX-305, 905, 1302, 1601, 1603, 2003, 2702, 2901, 3106; 270 μM for LX-1103, 2005, 2007;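 further: A549 cells made senescent by doxorubicin exposure, with DMSO-treated cells serving as the non-senescent control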
Method: as §1

senescent foreskin cells = assay: Survival of senescent human cells treated with supernatant (secreted fluid) from death-induced cells, Example 13; assay type: cell-based; conditions: Table 8; supernatant from dying senescent cells treated at 30, 90 or 270 μM (as Example 11); senescent treated cells
[6] = test system: obesity-induced aged C57BL6J mice; assay: Anxiety, depression, lethargy (open field test) in obesity-aged mice, Example 23-4, Table 44; assay type: in vivo, mouse; conditions: obesity-aged mice
Method: 15-week-old male C57BL6J mice (The Jackson Laboratory) were induced to obesity by a high-fat diet using the same method as in Example 9-1 WO2023-085787 A1. After acclimation to the experimental environment for one week, the mice were randomly assigned to experimental and control groups. […] LX-3002 was mixed in distilled water with 4% DMSO, 30% PEG300, and 5% Tween80 and administered orally at a concentration of 10 mg/kg daily for 21 days. LX-5701 was mixed in PBS and administered orally at a concentration of 360 mg/kg daily for 21 days. LX-6807 was mixed in saline and administered intraperitoneally at a concentration of 1 mg/kg daily for 21 days. The control group received only the solution in the same volume. After the end of drug administration, the methods described in each example below were performed.
It was determined that anxiety and depression caused by obesity are not causally related to increased body weight, but rather are caused by the accumulation of senescent cells. Accordingly, an activity assessment (open field test) was performed using the same method as in Example 7-7 of WO2023-085787 A1 to analyze lethargy caused by anxiety and depression caused by obesity in mice. The table below quantitatively represents activity, a criterion for assessing lethargy due to anxiety and depression, under conditions in which aging was induced by obesity and the test compound was not administered or was administered. The activity assessment after obesity-induced aging was calculated as 100% and compared with the activity assessment after test compound treatment.

senescent A549 cells [7] = assay: Viability of senescent A549 cells (CellTiter-Glo), Example 18, Table 15; conditions: doxorubicin-induced senescent A549 cells, 0 μM = 100%
Method: Senescence-induced cancer cells treated with doxorubicin were treated with the test compound at designated concentrations, and cell viability was measured using the CellTiter-Glo Luminescent Cell Viability Assay (Promega).

senescent cells = assay: Viability of senescent cells (CellTiter-Glo), Example 17, Table 13; conditions: doxorubicin-induced senescent cells, 0 μM = 100
Method: Cells induced to undergo senescence by doxorubicin treatment were treated with test compound at designated concentrations and measured using the CellTiter-Glo Luminescent Cell Viability Assay (Promega).

[8] = test system: HMGN1 secreted from senescent cells; assay: HMGN1 secretion (ELISA) from doxorubicin-induced senescent cells, Example 17; assay type: cell-based, human; conditions: senescent untreated = 100%; 30 μM; 90 μM for LX-5211, 5433, 6530, 9105, 9118, 9321, 9602; 2.4 mM for LX-9336
[9] = test system: naturally aged C57BL6J mice; assay: Geriatric depression and anxiety in aged mice, Example 21-8; assay type: in vivo, mouse; conditions: aged mice
From the text: The amount of senescent-associated secretory factor (SASP) in serum and tissues collected from mice of Examples 21-5 and 21-6 was reduced by treatment with LX-5701, LX-2101, or LX-2102. It was confirmed that removing senescent cells, which increase with aging in mice, and effectively reducing the amount of senescent-associated secretory factor (SASP) can improve symptoms of geriatric depression and anxiety.

[10] = test system: HMGN1 secreted from senescent A549 cells; assay: HMGN1 secretion (ELISA) from senescent A549 cells, Example 18, Table 14; assay type: cell-based, human; conditions: doxorubicin-senescent A549, without test compound (DMSO) = 100%; 30 μM (LX-5211, LX-5433, LX-6530, LX-6800, LX-9105, LX-9118, LX-9131, LX-9136, LX-9302, LX-9321, LX-9565, LX-9602 at 90 μM; LX-9336 at 2.4 mM)
Method: On the other hand, in cancer cells treated with doxorubicin, where senescence was induced, the amount of HMGN1 measured under conditions where cells were not treated with the test compound was calculated as 100%, and the amount of HMGN1 was measured under conditions where the senescent cancer cells were treated with the test compound.

[11] = MST; described in WO2021183908A1; cited from earlier work

C[N+](C)(C)CCO.C[N+](C)(C)CCO.[SH-].[SH-].[S]=[Mo]=[S] [LX-2601]
HMGN1 [1]: 263% | Femur Ctsk mRNA (naturally aged mice): 60% | Heart Sur2a mRNA (naturally aged mice): 2.7 fold | Joint Col2a1 mRNA (naturally aged mice): 2.3 fold | Kidney Agtr1a mRNA (naturally aged mice): 73% | Liver IL6 mRNA (naturally aged mice): 75% | Liver MMP3 mRNA (naturally aged mice): 77% | Liver p16 mRNA (naturally aged mice): 73% | Open Field Test Time in Center (naturally aged mice): 166% | Skin Col1a1 mRNA (naturally aged mice): 2.3 Fold | Skin SDF1 mRNA (naturally aged mice): 1.9 fold | Muscle Mass (naturally aged mice): 0.71 g | Fat Mass (naturally aged mice): 0.88 g | Cataract incidence (naturally aged mice): 80% | Survival (senescent A549 cells [2]; 1.1 μM): 98.6% | Survival (senescent A549 cells [2]; 10 μM): 59.7% | Survival (senescent A549 cells [2]; 30 μM): 50.7% | Survival (senescent A549 cells [2]; […]): 86% | Survival (senescent human cells; 1.1 μM): 95.2% | Survival (senescent human cells; 10 μM): 58.6% | Survival (senescent human cells; 30 μM): 21.8% | Survival (senescent human cells; […]): 81.8% | Lung p16 mRNA [3]: 81 (±5.2) % | Col1a1 mRNA [3]: 67 (±3.0) % | Liver p16 mRNA [4]: 75 (±3.2) % | Col1a1 mRNA [4]: 63 (±2.6) % | HMGN1 [5]: 193% | Survival (senescent foreskin cells): 67.3

CCOC(=O)[C@@H](N)CCC(=O)N[C@@H](CSCc1ccccc1)C(=O)N[C@@H](C(=O)OCC)c1ccccc1 [LX-2602, Ezatiostat]
HMGN1 [1]: 208% | Femur Ctsk mRNA (naturally aged mice): 59% | Heart Sur2a mRNA (naturally aged mice): 1.7 fold | Joint Col2a1 mRNA (naturally aged mice): 2.2 fold | Kidney Agtr1a mRNA (naturally aged mice): 61% | Liver IL6 mRNA (naturally aged mice): 80% | Liver MMP3 mRNA (naturally aged mice): 64% | Liver p16 mRNA (naturally aged mice): 71% | Open Field Test Time in Center (naturally aged mice): 158% | Skin Col1a1 mRNA (naturally aged mice): 2.5 Fold | Skin SDF1 mRNA (naturally aged mice): 2.0 fold | Muscle Mass (naturally aged mice): 0.69 g | Fat Mass (naturally aged mice): 0.84 g | Cataract incidence (naturally aged mice): 81% | Survival (senescent A549 cells [2]; 1.1 μM): 102.7% | Survival (senescent A549 cells [2]; 10 μM): 96% | Survival (senescent A549 cells [2]; 30 μM): 32.5% | Survival (senescent A549 cells [2]; […]): 107.4% | Survival (senescent human cells; 1.1 μM): 97.3% | Survival (senescent human cells; 10 μM): 76.9% | Survival (senescent human cells; 30 μM): 47.6% | Survival (senescent human cells; […]): 92.5% | Lung p16 mRNA [3]: 68 (±3.5) % | Col1a1 mRNA [3]: 58 (±2.9) % | Liver p16 mRNA [4]: 77 (±3.9) % | Col1a1 mRNA [4]: 82 (±3.7) % | HMGN1 [5]: 283% | Survival (senescent foreskin cells): 69.5

CN(CCOc1ccc(CC2SC(=O)NC2=O)cc1)c1ccccn1 (stereo not shown) [LX-9423, Rosiglitazone]
geriatric depression [6]: similarly improving geriatric depression | Survival (%) (senescent A549 cells [7]; 1.1 μM): 82.1% | Survival (%) (senescent A549 cells [7]; 10 μM): 39.8% | Survival (%) (senescent A549 cells [7]; 30 μM): 3.0% | Survival (%) (senescent A549 cells [7]; […]): 78.3% | Survival (%) (senescent cells; 1.1 μM): 79.5% | Survival (%) (senescent cells; 10 μM): 25.4% | Survival (%) (senescent cells; 30 μM): 8.7% | Survival (%) (senescent cells; […]): 71.8% | HMGN1 [8]: 227% | amount of SASP, p16, SA-β-gal, lipofuscin [9]: reduced | symptoms of geriatric depression and anxiety [9]: improved | HMGN1 [10]: 239%

CC(C)(C)OC(=O)CCN1C(=O)c2ccccc2C1=O [QW-011]
Kd [11]: 926 nM

CC(C)OC(=O)CCCN1C(=O)c2ccccc2C1=O [QW-017]
Kd [11]: 399 nM

CC(C)(C)OC(=O)C(C)(C)N1C(=O)c2ccccc2C1=O [QW-020]
Kd [11]: 2140 nM

CC(C(=O)OC(C)(C)C)N1C(=O)c2ccccc2C1=O (stereo not shown) [QW-023]
Kd [11]: 1780 nM

CC(C)(C)OC(=O)CCCCCN1C(=O)c2ccccc2C1=O [QW-029]
Kd [11]: 2100 nM

CC(C)(C)OC(=O)C(N1C(=O)c2ccccc2C1=O)C(C)(C)C (stereo not shown) [QW-034]
Kd [11]: 979 nM

CCC(C)C(C(=O)OC(C)(C)C)N1C(=O)c2ccccc2C1=O (stereo not shown) [QW-050]
Kd [11]: 2430 nM
